# Test results reported in PubChem BioAssay AID308 (DTP/NCI, 2004).
# Several values for one entry are separate records, joined by “and”; a condition that tells them apart may be missing. Identical values can stand only once. Toxic doses and inconclusive results are not listed.
# Tested on: BDF1 mice, L1210 6-MP/6-TG resistant leukemia ip, survival T/C
# Assay: NCI In Vivo Anticancer Drug Screen. Data for tumor model L1210 Leukemia resistant to 6-MP and 6-Thioguanine; NSC 755, NSC 752 (intraperitoneal) in B6D2F1 (BDF1) mice
# Conditions: endpoint: mean survival time, higher = longer survival
# Description: The antitumor activity of compounds was measured in mice bearing transplantable tumors. Survival or tumor size were measured and the results are expressed as the measurement made in the treated group (T) divided by the measurement made in the vehicle treated control group (C). The tumor model used in this assay is L1210 Leukemia resistant to 6-MP and 6-Thioguanine; NSC 755, NSC 752 (intraperitoneal) in B6D2F1 (BDF1) mice
# [1] = dose: 7.5 mg/kg/injection, schedule: Q01DX Z (ip), vehicle: carboxymethylcellulose (CMC)
# [2] = dose: 25.0 mg/kg/injection, schedule: Q01DX Z (ip), vehicle: carboxymethylcellulose (CMC)
smiles,measurement,setting,value
N#[N+]c1cnc([O-])[nH]c1=O,T/C,"dose: 5.0 mg/kg/injection, schedule: Q01DX Z (ip), vehicle: alkali diluted with saline",166 % of control
same,T/C,"dose: 7.5 mg/kg/injection, schedule: Q01DX Z (ip), vehicle: alkali diluted with saline",177 % of control
same,T/C,"dose: 10.0 mg/kg/injection, schedule: Q01DX Z (ip), vehicle: alkali diluted with saline",150 % of control
same,T/C,"dose: 15.0 mg/kg/injection, schedule: Q01DX Z (ip), vehicle: alkali diluted with saline",95 % of control
O=C(Nc1ccc(C2=NCCCN2)cc1)c1ccc(C(=O)Nc2ccc(C3=NCCCN3)cc2)cc1,T/C,"dose: 0.46 mg/kg/injection, schedule: Q01DX Z (ip), vehicle: carboxymethylcellulose (CMC)",106 % of control
same,T/C,"dose: 1.87 mg/kg/injection, schedule: Q01DX Z (ip), vehicle: carboxymethylcellulose (CMC)",178 % of control
same,T/C,"dose: 3.75 mg/kg/injection, schedule: Q01DX Z (ip), vehicle: carboxymethylcellulose (CMC)",154 % of control and 195 % of control
same,T/C,[1],155 % of control
same,T/C,"dose: 15.0 mg/kg/injection, schedule: Q01DX Z (ip), vehicle: carboxymethylcellulose (CMC)",113 % of control
S=c1nc[nH]c2c1ncn2CN1CCCCC1,T/C,"dose: 50.0 mg/kg/injection, schedule: Q01DX009 (ip), vehicle: other",94 % of control
OCC1OC(n2cnc3c(=S)nc[nH]c32)CC1O (configuration not stated),T/C,"dose: 62.0 mg/kg/injection, schedule: Q01DX015 (ip), vehicle: carboxymethylcellulose (CMC)",98 % of control
same,T/C,"dose: 125.0 mg/kg/injection, schedule: Q01DX015 (ip), vehicle: carboxymethylcellulose (CMC)",96 % of control
same,T/C,"dose: 250.0 mg/kg/injection, schedule: Q01DX015 (ip), vehicle: carboxymethylcellulose (CMC)",93 % of control
Nc1ccc(OC(=O)Oc2ccc(N)cc2)cc1,T/C,"dose: 62.0 mg/kg/injection, schedule: Q01DX Z (ip), vehicle: saline",95 % of control
same,T/C,"dose: 125.0 mg/kg/injection, schedule: Q01DX Z (ip), vehicle: saline",152 % of control
same,T/C,"dose: 250.0 mg/kg/injection, schedule: Q01DX Z (ip), vehicle: saline",103 % of control
CC(=O)Nc1ccc2nc3ccc(NC(C)=O)cc3[n+](-c3ccccc3)c2c1,T/C,"dose: 1.25 mg/kg/injection, schedule: Q01DX Z (ip), vehicle: carboxymethylcellulose (CMC)",95 % of control
same,T/C,"dose: 2.5 mg/kg/injection, schedule: Q01DX Z (ip), vehicle: carboxymethylcellulose (CMC)",103 % of control
same,T/C,[1],154 % of control
same,T/C,[2],202 % of control
same,T/C,"dose: 50.0 mg/kg/injection, schedule: Q01DX Z (ip), vehicle: carboxymethylcellulose (CMC)",176 % of control
same,T/C,"dose: 75.0 mg/kg/injection, schedule: Q01DX Z (ip), vehicle: carboxymethylcellulose (CMC)",180 % of control
same,T/C,"dose: 100.0 mg/kg/injection, schedule: Q01DX Z (ip), vehicle: carboxymethylcellulose (CMC)",121 % of control
same,T/C,"dose: 200.0 mg/kg/injection, schedule: Q01DX Z (ip), vehicle: carboxymethylcellulose (CMC)",150 % of control
same,T/C,"dose: 300.0 mg/kg/injection, schedule: Q01DX Z (ip), vehicle: carboxymethylcellulose (CMC)",122 % of control
O=c1[nH]c(=O)n(C2CC(O)C(CO)O2)cc1Br (configuration not stated),T/C,"dose: 20.0 mg/kg/injection, schedule: Q01DX Z (ip), vehicle: carboxymethylcellulose (CMC)",112 % of control
same,T/C,"dose: 30.0 mg/kg/injection, schedule: Q01DX Z (ip), vehicle: carboxymethylcellulose (CMC)",114 % of control
same,T/C,"dose: 40.0 mg/kg/injection, schedule: Q01DX Z (ip), vehicle: carboxymethylcellulose (CMC)",102 % of control
same,T/C,"dose: 60.0 mg/kg/injection, schedule: Q01DX Z (ip), vehicle: carboxymethylcellulose (CMC)",98 % of control
same,T/C,"dose: 93.0 mg/kg/injection, schedule: Q01DX Z (ip), vehicle: carboxymethylcellulose (CMC)",117 % of control
same,T/C,"dose: 187.0 mg/kg/injection, schedule: Q01DX Z (ip), vehicle: carboxymethylcellulose (CMC)",115 % of control
same,T/C,"dose: 375.0 mg/kg/injection, schedule: Q01DX Z (ip), vehicle: carboxymethylcellulose (CMC)",112 % of control
same,T/C,"dose: 500.0 mg/kg/injection, schedule: Q01DX Z (ip), vehicle: carboxymethylcellulose (CMC)",109 % of control
C=C(C)CSc1ncnc2nc[nH]c12,T/C,"dose: 62.0 mg/kg/injection, schedule: Q01DX015 (ip), vehicle: other",109 % of control
same,T/C,"dose: 125.0 mg/kg/injection, schedule: Q01DX015 (ip), vehicle: other",95 % of control
same,T/C,"dose: 250.0 mg/kg/injection, schedule: Q01DX015 (ip), vehicle: other",100 % of control
CCSc1ncc(Br)c(Sc2nc(N)nc3nc[nH]c23)n1,T/C,"dose: 1.5 mg/kg/injection, schedule: Q01DX015 (ip), vehicle: carboxymethylcellulose (CMC)",112 % of control
same,T/C,"dose: 3.0 mg/kg/injection, schedule: Q01DX015 (ip), vehicle: carboxymethylcellulose (CMC)",115 % of control
same,T/C,"dose: 6.0 mg/kg/injection, schedule: Q01DX015 (ip), vehicle: carboxymethylcellulose (CMC)",100 % of control
same,T/C,"dose: 12.5 mg/kg/injection, schedule: Q01DX015 (ip), vehicle: carboxymethylcellulose (CMC)",100 % of control
O=P(O)(OCC1OC(n2cnc3c(=S)nc[nH]c32)C(O)C1O)Oc1ccccc1 (configuration not stated),T/C,"dose: 200.0 mg/kg/injection, schedule: Q01DX001 (ip), vehicle: carboxymethylcellulose (CMC)",103 % of control
same,T/C,"dose: 300.0 mg/kg/injection, schedule: Q01DX001 (ip), vehicle: carboxymethylcellulose (CMC)",99 % of control
same,T/C,"dose: 400.0 mg/kg/injection, schedule: Q01DX001 (ip), vehicle: carboxymethylcellulose (CMC)",100 % of control
same,T/C,"dose: 500.0 mg/kg/injection, schedule: Q01DX001 (ip), vehicle: carboxymethylcellulose (CMC)",103 % of control
same,T/C,"dose: 750.0 mg/kg/injection, schedule: Q01DX001 (ip), vehicle: carboxymethylcellulose (CMC)",94 % of control
same,T/C,"dose: 1000.0 mg/kg/injection, schedule: Q01DX001 (ip), vehicle: carboxymethylcellulose (CMC)",86 % of control
CC(C)Cn1cnc2c(Sc3c([N+](=O)[O-])ncn3C)nc(N)nc21,T/C,"dose: 1.0 mg/kg/injection, schedule: Q01DX015 (ip), vehicle: other",94 % of control
same,T/C,"dose: 2.0 mg/kg/injection, schedule: Q01DX015 (ip), vehicle: other",92 % of control
same,T/C,"dose: 8.0 mg/kg/injection, schedule: Q01DX015 (ip), vehicle: other",95 % of control
same,T/C,"dose: 12.5 mg/kg/injection, schedule: Q01DX015 (ip), vehicle: other",100 % of control
same,T/C,"dose: 25.0 mg/kg/injection, schedule: Q01DX015 (ip), vehicle: other",97 % of control
same,T/C,"dose: 50.0 mg/kg/injection, schedule: Q01DX015 (ip), vehicle: other",90 % of control
Nc1nc(SCc2ccccc2)c2[nH]cnc2n1,T/C,"dose: 5.0 mg/kg/injection, schedule: Q01DX Z (ip), vehicle: carboxymethylcellulose (CMC)",88 % of control
same,T/C,"dose: 10.0 mg/kg/injection, schedule: Q01DX Z (ip), vehicle: carboxymethylcellulose (CMC)",91 % of control
same,T/C,[2],86 % of control
same,T/C,"dose: 37.5 mg/kg/injection, schedule: Q01DX Z (ip), vehicle: carboxymethylcellulose (CMC)",95 % of control
CNS(=O)(=O)c1ncnc2nc[nH]c12,T/C,"dose: 13.0 mg/kg/injection, schedule: Q01DX Z (ip), vehicle: carboxymethylcellulose (CMC)",114 % of control
same,T/C,"dose: 32.0 mg/kg/injection, schedule: Q01DX Z (ip), vehicle: carboxymethylcellulose (CMC)",114 % of control
same,T/C,"dose: 47.0 mg/kg/injection, schedule: Q01DX Z (ip), vehicle: carboxymethylcellulose (CMC)",123 % of control
same,T/C,"dose: 58.0 mg/kg/injection, schedule: Q01DX Z (ip), vehicle: carboxymethylcellulose (CMC)",108 % of control
same,T/C,"dose: 70.6 mg/kg/injection, schedule: Q01DX Z (ip), vehicle: carboxymethylcellulose (CMC)",117 % of control
same,T/C,"dose: 107.0 mg/kg/injection, schedule: Q01DX Z (ip), vehicle: carboxymethylcellulose (CMC)",113 % of control
same,T/C,"dose: 160.5 mg/kg/injection, schedule: Q01DX Z (ip), vehicle: carboxymethylcellulose (CMC)",105 % of control
CC/C(=C(/CC)c1ccc(O)cc1)c1ccc(O)cc1,T/C,"dose: 37.5 mg/kg/injection, schedule: Q01DX Z (sc), vehicle: steriod suspending solution",90 % of control
same,T/C,"dose: 50.0 mg/kg/injection, schedule: Q01DX Z (sc), vehicle: steriod suspending solution",95 % of control
same,T/C,"dose: 75.0 mg/kg/injection, schedule: Q01DX Z (sc), vehicle: steriod suspending solution",94 % of control
same,T/C,"dose: 100.0 mg/kg/injection, schedule: Q01DX Z (sc), vehicle: steriod suspending solution",94 % of control
